1 molecule from patent publication US5336783A, “Calpain inhibitor cystamidin A and its production” (The Kitasato Institute, priority 1992, dated 1994) can be followed below.

One series can be described thus: solubility in solvent. In kind it is physicochemical. The settings on record: water, methanol, acetone, chloroform and benzene.
Series [1] is described as follows: acute toxicity LD50 (ip) in mice. The settings on record: mouse, in vivo.
For series [2], the system named is various kinds of bacteria, yeast and fungi. Put plainly: antimicrobial activity (paper disk method). To be noted: 100 μg/disk. Format: cell-based.
The test system of a further series is B-16 melanoma cells. Put plainly: activity against B-16 melanoma cells in vitro. To be noted: Mus musculus, B16. Format: cell-based.
Another series has as its system calpain. Put plainly: calpain inhibition using casein as substrate (method by Saito et al.). Format: biochemical.

Broadly, the LD50 is the dose expected to kill half of the subjects tested. A lower LD50 goes with a more toxic substance. The IC50 is the midpoint of a concentration-inhibition curve. Read a low IC50 as inhibition by little substance.

Converted amounts (≈) assume the structure as drawn.

In the case of `NC(=O)CCc1cc[nH]c1` [cystamidin A], in “solubility in solvent”, the Solubility in solvent result is “soluble in water, methanol, acetone, chloroform and benzene”. The LD50 in series [1] is more than 200 mg/kg. Also, in series [2], the antimicrobial activity entry is “no antimicrobial activity”. The IC50 in the series on B-16 melanoma cells was more than 25 µg/mL. For the same molecule, in the series with calpain, the “IC50 (50% inhibition) against calpain” value was found to be 0.20 µg/mL (≈ 1.45 µM).
